From ChEMBL document CHEMBL5715260, “Selectivity Literature for EUbOPEN Chemogenomic Library” (2024)

Legend:
[1] = target: DNA (cytosine-5)-methyltransferase 3B (Homo sapiens) (UniProt Q9UBC3); experiment: (§1) Selectivity interaction (Enzymatic assay (human methyltransferases)) EUB0002223a DNMT3B; design: recommended concentration 1 uM; conditions: at 50 µM
[2] = target: DNA (cytosine-5)-methyltransferase 3B (Homo sapiens) (UniProt Q9UBC3); experiment: as §1; design: recommended concentration 1 uM; conditions: at 50 µM; remark: listed apart in the source
[3] = target: DNA (cytosine-5)-methyltransferase 3B (Homo sapiens) (UniProt Q9UBC3); experiment: as §1; design: recommended concentration 1 uM; conditions: at 50 µM; remark: listed apart in the source
[4] = target: DNA (cytosine-5)-methyltransferase 3A (Homo sapiens) (UniProt Q9Y6K1); conditions: at 50 µM
[5] = target: DNA (cytosine-5)-methyltransferase 3A (Homo sapiens) (UniProt Q9Y6K1); conditions: at 50 µM; remark: listed apart in the source
[6] = target: DNA (cytosine-5)-methyltransferase 3B (Homo sapiens) (UniProt Q9UBC3); experiment: as §1; design: recommended concentration 1 uM; conditions: at 50 µM; remark: listed apart in the source
[7] = target: DNA (cytosine-5)-methyltransferase 3A (Homo sapiens) (UniProt Q9Y6K1); conditions: at 50 µM; remark: listed apart in the source
[8] = target: DNA (cytosine-5)-methyltransferase 3A (Homo sapiens) (UniProt Q9Y6K1); conditions: at 50 µM; remark: listed apart in the source
[9] = target: T1, Hepatocyte nuclear factor 4-alpha (Homo sapiens) (UniProt P41235); experiment: Selectivity interaction (Reporter gene assay) EUB0001482aCl HNF4A; design: recommended concentration 10 uM
T1 sequence (whole entry): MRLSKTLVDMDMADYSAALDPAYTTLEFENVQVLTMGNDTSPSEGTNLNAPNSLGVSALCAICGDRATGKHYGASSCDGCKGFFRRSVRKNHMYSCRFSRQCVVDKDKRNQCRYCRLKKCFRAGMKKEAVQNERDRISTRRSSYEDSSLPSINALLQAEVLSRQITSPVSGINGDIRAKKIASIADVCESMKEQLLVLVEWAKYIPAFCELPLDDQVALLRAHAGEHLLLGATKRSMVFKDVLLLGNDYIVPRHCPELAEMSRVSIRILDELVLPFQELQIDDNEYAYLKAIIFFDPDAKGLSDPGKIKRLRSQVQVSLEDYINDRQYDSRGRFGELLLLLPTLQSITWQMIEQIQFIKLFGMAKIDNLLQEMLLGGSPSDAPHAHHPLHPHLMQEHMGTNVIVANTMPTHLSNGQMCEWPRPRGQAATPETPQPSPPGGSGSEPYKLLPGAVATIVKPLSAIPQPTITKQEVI

[10] = target: Nuclear receptor subfamily 4immunitygroup A member 1 (Homo sapiens) (UniProt P22736); experiment: Selectivity interaction (Reporter gene assay) EUB0001482aCl NR4A1; design: recommended concentration 10 uM
[11] = target: T2, Retinoic acid receptor RXR-alpha (Homo sapiens) (UniProt P19793); experiment: Selectivity interaction (Reporter gene assay) EUB0001482aCl RXRA; design: recommended concentration 10 uM; conditions: reference bexarotene 1 uM, Selectivity number of off-targets 0.0, Selectivity number of targets 1.0, Source Knowledge inhouse
T2 sequence (whole entry): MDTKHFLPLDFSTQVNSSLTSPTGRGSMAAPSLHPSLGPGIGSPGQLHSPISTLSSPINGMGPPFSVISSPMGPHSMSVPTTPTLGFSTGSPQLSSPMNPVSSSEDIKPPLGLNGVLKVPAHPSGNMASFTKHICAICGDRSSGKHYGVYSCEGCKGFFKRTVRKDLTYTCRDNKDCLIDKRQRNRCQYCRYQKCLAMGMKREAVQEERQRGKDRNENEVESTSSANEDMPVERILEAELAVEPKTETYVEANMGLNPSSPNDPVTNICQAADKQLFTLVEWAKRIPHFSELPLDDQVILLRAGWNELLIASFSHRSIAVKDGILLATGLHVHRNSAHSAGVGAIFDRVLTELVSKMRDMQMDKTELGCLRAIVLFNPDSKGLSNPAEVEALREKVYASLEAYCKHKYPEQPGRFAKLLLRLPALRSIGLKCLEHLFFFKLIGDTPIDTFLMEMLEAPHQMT

[12] = target: T3, Nuclear receptor subfamily 2 group C member 1 (Homo sapiens) (UniProt P13056); experiment: Selectivity interaction (Reporter gene assay) EUB0001482aCl NR2C1; design: recommended concentration 10 uM
T3 sequence (whole entry): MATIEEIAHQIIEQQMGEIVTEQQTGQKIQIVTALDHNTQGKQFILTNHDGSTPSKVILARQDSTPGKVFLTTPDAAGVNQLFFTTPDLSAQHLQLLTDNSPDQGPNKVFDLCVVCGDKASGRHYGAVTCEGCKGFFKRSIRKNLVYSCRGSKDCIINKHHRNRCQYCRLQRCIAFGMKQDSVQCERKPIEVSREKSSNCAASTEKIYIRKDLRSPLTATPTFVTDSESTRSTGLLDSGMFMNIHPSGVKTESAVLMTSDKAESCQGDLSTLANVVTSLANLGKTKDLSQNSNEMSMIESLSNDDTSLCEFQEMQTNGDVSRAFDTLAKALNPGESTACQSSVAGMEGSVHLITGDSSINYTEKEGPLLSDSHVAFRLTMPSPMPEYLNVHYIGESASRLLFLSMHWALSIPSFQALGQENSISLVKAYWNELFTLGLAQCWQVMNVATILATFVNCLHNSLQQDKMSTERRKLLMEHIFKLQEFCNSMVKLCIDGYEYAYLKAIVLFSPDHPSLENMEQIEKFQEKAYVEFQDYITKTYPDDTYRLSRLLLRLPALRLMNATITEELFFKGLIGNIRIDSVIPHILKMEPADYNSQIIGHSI

[13] = target: T4, Alpha trans-inducing protein (Human alphaherpesvirus 1) (UniProt A0A5J6DW59); experiment: Selectivity interaction (Reporter gene assay) EUB0001482aCl UL48; design: recommended concentration 10 uM
[14] = target: Steroidogenic factor 1 (Homo sapiens) (UniProt Q13285); experiment: Selectivity interaction (Reporter gene assay) EUB0001482aCl NR5A1; design: recommended concentration 10 uM
[15] = target: Nuclear receptor subfamily 2 group E member 1 (Homo sapiens) (UniProt Q9Y466); experiment: Selectivity interaction (Reporter gene assay) EUB0001482aCl NR2E1; design: recommended concentration 10 uM
[16] = target: Nuclear receptor subfamily 4immunitygroup A member 1 (Homo sapiens) (UniProt P22736); experiment: Selectivity interaction (Reporter gene assay) EUB0001478a NR4A1; design: recommended concentration 1 uM
[17] = target: T4, Alpha trans-inducing protein (Human alphaherpesvirus 1); experiment: Selectivity interaction (Reporter gene assay) EUB0001478a UL48; design: recommended concentration 1 uM
[18] = target: Nuclear receptor subfamily 2 group E member 1 (Homo sapiens) (UniProt Q9Y466); experiment: Selectivity interaction (Reporter gene assay) EUB0001478a NR2E1; design: recommended concentration 1 uM
[19] = target: T3, Nuclear receptor subfamily 2 group C member 1 (Homo sapiens); experiment: Selectivity interaction (Reporter gene assay) EUB0001478a NR2C1; design: recommended concentration 1 uM
[20] = target: T2, Retinoic acid receptor RXR-alpha (Homo sapiens); experiment: Selectivity interaction (Reporter gene assay) EUB0001478a RXRA; design: recommended concentration 1 uM
[21] = target: T1, Hepatocyte nuclear factor 4-alpha (Homo sapiens); experiment: Selectivity interaction (Reporter gene assay) EUB0001478a HNF4A; design: recommended concentration 1 uM
[22] = target: Steroidogenic factor 1 (Homo sapiens) (UniProt Q13285); experiment: Selectivity interaction (Reporter gene assay) EUB0001478a NR5A1; design: recommended concentration 1 uM
[23] = target: Steroidogenic factor 1 (Homo sapiens) (UniProt Q13285); experiment: Selectivity interaction (Reporter gene assay) EUB0001169a NR5A1; design: recommended concentration 1 uM; conditions: screened at recom. conc., Selectivity number of off-targets 1.0, Selectivity number of targets 5.0, Source Knowledge inhouse
[24] = target: T4, Alpha trans-inducing protein (Human alphaherpesvirus 1); experiment: Selectivity interaction (Reporter gene assay) EUB0001169a UL48; design: recommended concentration 1 uM
[25] = target: T1, Hepatocyte nuclear factor 4-alpha (Homo sapiens); experiment: Selectivity interaction (Reporter gene assay) EUB0001169a HNF4A; design: recommended concentration 1 uM
[26] = target: Nuclear receptor subfamily 4immunitygroup A member 1 (Homo sapiens) (UniProt P22736); experiment: Selectivity interaction (Reporter gene assay) EUB0001169a NR4A1; design: recommended concentration 1 uM
[27] = target: T3, Nuclear receptor subfamily 2 group C member 1 (Homo sapiens); experiment: Selectivity interaction (Reporter gene assay) EUB0001169a NR2C1; design: recommended concentration 1 uM
[28] = target: T2, Retinoic acid receptor RXR-alpha (Homo sapiens); experiment: Selectivity interaction (Reporter gene assay) EUB0001169a RXRA; design: recommended concentration 1 uM
[29] = target: Nuclear receptor subfamily 2 group E member 1 (Homo sapiens) (UniProt Q9Y466); experiment: Selectivity interaction (Reporter gene assay) EUB0001169a NR2E1; design: recommended concentration 1 uM
[30] = target: T5, Oxysterols receptor LXR-beta (Homo sapiens) (UniProt P55055); experiment: Selectivity interaction (Reporter gene assay) EUB0001173a NR1H2; design: recommended concentration 1 uM; conditions: screened at recom. conc., Selectivity number of off-targets 1.0, Selectivity number of targets 19.0, Source Knowledge inhouse
T5 sequence (whole entry): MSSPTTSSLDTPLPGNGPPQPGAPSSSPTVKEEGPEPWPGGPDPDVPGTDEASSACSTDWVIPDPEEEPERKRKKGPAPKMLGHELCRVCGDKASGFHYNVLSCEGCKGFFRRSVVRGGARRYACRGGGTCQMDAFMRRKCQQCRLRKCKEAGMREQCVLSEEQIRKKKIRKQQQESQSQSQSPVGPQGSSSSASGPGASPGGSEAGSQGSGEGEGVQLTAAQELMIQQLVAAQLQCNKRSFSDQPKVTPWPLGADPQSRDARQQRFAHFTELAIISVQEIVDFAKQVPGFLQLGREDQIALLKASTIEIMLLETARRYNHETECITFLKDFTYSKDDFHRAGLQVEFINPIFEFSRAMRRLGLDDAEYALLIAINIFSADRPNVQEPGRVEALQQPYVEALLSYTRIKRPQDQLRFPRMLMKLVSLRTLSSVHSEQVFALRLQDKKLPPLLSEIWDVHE

[31] = target: T4, Alpha trans-inducing protein (Human alphaherpesvirus 1); experiment: Selectivity interaction (Reporter gene assay) EUB0001173a UL48; design: recommended concentration 1 uM
[32] = target: T1, Hepatocyte nuclear factor 4-alpha (Homo sapiens); experiment: Selectivity interaction (Reporter gene assay) EUB0001173a HNF4A; design: recommended concentration 1 uM
[33] = target: Steroidogenic factor 1 (Homo sapiens) (UniProt Q13285); experiment: Selectivity interaction (Reporter gene assay) EUB0001173a NR5A1; design: recommended concentration 1 uM
[34] = target: Nuclear receptor subfamily 2 group E member 1 (Homo sapiens) (UniProt Q9Y466); experiment: Selectivity interaction (Reporter gene assay) EUB0001173a NR2E1; design: recommended concentration 1 uM
[35] = target: T3, Nuclear receptor subfamily 2 group C member 1 (Homo sapiens); experiment: Selectivity interaction (Reporter gene assay) EUB0001173a NR2C1; design: recommended concentration 1 uM
[36] = target: Nuclear receptor subfamily 4immunitygroup A member 1 (Homo sapiens) (UniProt P22736); experiment: Selectivity interaction (Reporter gene assay) EUB0001173a NR4A1; design: recommended concentration 1 uM
[37] = target: T2, Retinoic acid receptor RXR-alpha (Homo sapiens); experiment: Selectivity interaction (Reporter gene assay) EUB0001173a RXRA; design: recommended concentration 1 uM

Chain of DNA (cytosine-5)-methyltransferase 3A (Homo sapiens) (Q9Y6K1 whole entry, looked up): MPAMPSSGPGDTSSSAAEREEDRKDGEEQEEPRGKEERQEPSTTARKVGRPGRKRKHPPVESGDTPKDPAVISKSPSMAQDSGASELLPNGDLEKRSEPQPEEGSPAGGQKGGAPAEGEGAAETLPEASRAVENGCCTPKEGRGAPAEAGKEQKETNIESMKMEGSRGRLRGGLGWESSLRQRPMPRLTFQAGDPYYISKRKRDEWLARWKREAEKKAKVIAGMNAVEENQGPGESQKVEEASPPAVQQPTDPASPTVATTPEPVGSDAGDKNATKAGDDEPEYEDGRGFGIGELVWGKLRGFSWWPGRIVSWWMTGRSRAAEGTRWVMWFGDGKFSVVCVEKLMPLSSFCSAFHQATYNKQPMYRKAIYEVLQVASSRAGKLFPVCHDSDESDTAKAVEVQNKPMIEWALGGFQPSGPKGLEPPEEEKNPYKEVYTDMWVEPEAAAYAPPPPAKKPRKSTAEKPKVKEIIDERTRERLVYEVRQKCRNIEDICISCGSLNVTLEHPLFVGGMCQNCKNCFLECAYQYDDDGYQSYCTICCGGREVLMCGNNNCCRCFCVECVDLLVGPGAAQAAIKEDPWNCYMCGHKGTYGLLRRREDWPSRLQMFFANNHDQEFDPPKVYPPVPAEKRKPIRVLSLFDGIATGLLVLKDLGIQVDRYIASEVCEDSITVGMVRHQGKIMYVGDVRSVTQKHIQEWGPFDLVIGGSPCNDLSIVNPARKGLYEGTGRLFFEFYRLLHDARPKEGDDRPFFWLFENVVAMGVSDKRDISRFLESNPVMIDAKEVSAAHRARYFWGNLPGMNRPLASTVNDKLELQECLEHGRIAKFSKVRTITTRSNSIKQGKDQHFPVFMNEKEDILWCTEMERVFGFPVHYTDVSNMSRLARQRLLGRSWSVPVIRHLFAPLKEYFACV
Chain of Nuclear receptor subfamily 2 group E member 1 (Homo sapiens) (Q9Y466 whole entry): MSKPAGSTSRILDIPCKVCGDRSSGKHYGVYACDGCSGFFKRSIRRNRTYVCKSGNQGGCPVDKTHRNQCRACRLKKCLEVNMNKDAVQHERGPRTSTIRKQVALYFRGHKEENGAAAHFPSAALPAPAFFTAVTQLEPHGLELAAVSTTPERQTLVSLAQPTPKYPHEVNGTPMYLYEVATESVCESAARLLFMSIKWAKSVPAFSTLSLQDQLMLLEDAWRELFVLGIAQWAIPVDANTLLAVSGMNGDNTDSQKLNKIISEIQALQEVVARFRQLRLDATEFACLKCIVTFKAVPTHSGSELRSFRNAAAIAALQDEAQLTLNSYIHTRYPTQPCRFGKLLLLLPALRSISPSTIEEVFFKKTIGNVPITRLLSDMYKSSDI
Chain of Steroidogenic factor 1 (Homo sapiens) (Q13285 whole entry): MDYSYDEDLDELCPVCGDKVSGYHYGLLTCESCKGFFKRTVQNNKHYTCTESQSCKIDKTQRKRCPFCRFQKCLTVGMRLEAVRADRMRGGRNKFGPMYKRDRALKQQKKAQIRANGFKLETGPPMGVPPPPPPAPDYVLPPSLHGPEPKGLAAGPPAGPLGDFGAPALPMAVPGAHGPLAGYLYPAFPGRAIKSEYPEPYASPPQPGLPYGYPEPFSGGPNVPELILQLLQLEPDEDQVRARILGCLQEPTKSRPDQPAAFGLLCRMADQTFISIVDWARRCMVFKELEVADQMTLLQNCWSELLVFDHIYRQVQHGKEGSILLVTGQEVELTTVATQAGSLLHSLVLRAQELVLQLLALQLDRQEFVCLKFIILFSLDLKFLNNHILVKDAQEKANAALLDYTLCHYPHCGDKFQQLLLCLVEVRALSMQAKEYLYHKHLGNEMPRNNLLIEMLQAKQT
T4 sequence (A0A5J6DW59 as listed by the source): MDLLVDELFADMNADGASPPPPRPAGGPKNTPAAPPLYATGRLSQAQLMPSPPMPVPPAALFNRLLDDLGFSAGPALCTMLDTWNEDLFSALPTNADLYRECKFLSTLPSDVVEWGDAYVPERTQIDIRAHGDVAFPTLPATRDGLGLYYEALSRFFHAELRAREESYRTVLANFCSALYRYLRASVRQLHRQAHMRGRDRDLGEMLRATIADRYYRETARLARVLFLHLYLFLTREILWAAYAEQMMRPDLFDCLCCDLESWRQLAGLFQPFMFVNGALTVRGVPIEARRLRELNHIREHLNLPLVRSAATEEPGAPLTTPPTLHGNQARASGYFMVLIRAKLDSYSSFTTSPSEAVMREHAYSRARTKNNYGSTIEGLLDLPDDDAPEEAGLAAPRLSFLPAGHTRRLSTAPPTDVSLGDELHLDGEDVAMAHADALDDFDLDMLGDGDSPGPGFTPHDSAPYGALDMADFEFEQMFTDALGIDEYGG
Chain of Nuclear receptor subfamily 4immunitygroup A member 1 (Homo sapiens) (P22736 whole entry): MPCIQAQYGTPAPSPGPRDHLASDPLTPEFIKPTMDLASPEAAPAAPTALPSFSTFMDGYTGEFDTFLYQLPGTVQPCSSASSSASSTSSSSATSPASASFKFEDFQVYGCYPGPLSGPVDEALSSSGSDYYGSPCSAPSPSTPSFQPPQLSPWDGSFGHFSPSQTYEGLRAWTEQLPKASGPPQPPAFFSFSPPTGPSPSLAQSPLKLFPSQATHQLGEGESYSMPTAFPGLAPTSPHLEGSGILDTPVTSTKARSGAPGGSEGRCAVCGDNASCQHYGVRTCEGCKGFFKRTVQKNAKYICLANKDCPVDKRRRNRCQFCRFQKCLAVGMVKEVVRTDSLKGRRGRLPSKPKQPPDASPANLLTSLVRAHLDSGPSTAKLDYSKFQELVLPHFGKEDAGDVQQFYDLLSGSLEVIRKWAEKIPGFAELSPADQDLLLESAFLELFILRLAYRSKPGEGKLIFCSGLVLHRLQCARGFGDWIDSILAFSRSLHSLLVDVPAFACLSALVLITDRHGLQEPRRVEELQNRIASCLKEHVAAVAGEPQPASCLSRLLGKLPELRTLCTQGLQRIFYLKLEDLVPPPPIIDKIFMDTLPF

Compound CCNC(=O)NCCSC[C@H]1O[C@@H](n2cnc3c(N)ncnc32)[C@H](O)[C@@H]1O has an Enzyme activity [1] of 45%, an Enzyme activity [2] of 45% and an Enzyme activity [3] of 45%. It also gave an Enzyme activity [4] of 38%, an Enzyme activity [5] of 38% and an Enzyme activity [6] of 45%. It also gave an Enzyme activity [7] of 38% and an Enzyme activity [8] of 38%.
C[C@H](CCOc1cccc(CC(=O)O)c1)N(Cc1cccc(C(F)(F)F)c1Cl)CC(c1ccccc1)c1ccccc1 gave a Fold activation [9] of 1.02, a Fold activation [10] of 1.25 and a Relative activation [11] of 0.905%. It also gave a Fold activation [12] of 1.42, a P-value [13] of 0.0185 and a Fold activation [14] of 1.11. For the same compound, the Fold activation [15] was 1.41.
C=C1/C(=C\C=C2/CCC[C@]3(C)[C@@H]([C@H](C)CCCC(C)(C)O)CC[C@@H]23)C[C@@H](O)C[C@@H]1O showed a Fold activation [16] of 1.22, a P-value [17] of 6.76e-09 and a Fold activation [18] of 1.03. It also gave a Fold activation [19] of 1.06, a Relative activation [20] of 0.656% and a Remaining activity [21] of 0.883. For the same compound, the Remaining activity [22] was 0.937.
O=C(O)c1cc(F)c2nc(N3[C@@H]4CC[C@H]3C[C@@H](OCc3c(-c5ccccc5OC(F)(F)F)noc3C3CC3)C4)sc2c1 gave a Remaining activity [23] of 0.47, a P-value [24] of 0.00151 and a Remaining activity [25] of 0.655. For the same compound, the Remaining activity [26] was 0.696, the Fold activation [27] was 1.28 and the Relative activation [28] was 0.815%. The Remaining activity [29] was 0.961.
In the case of Cn1cc(C(=O)O)c2ccc(N3CCC(OCc4c(-c5c(Cl)cccc5Cl)noc4C4CC4)CC3)cc21, the Fold activation [30] is reported as 5.89, the P-value [31] is reported as 1.58e-05 and the Fold activation [32] is reported as 1.11. For the same compound, the Fold activation [33] was 0.997, the Fold activation [34] was 1.08 and the Fold activation [35] was 1.23. For the same compound, the Fold activation [36] was 1.01 and the Relative activation [37] was 0.539%.
